Reference: patent US20260240940A1, “REGULATING DISEASE OR DISORDER CHARACTERIZED BY ESOPHAGEAL EPITHELIAL PROLIFERATION THROUGH SECRETED FRIZZLED-RELATED PROTEIN 1 (SFRP1)” (The Regents of the University of Michigan, priority 2023, published 2026)

How the values were obtained:
EPC2-ALI cells [1] = test: qPCR mRNA expression of EoE proliferation and inflammatory genes in EPC2-ALI; assay type: cell-based, human; details: in the presence of SD-36
Experimental: (§1) EPC2-ALI culture—hTERT immortalized human esophageal epithelial keratinocytes (hTERT-EPC2) were cultured under air-liquid-interface conditions as described 9, 41. In brief, EPC2-hTERT cells were seeded onto permeable (0.4 μm) transwell support (Corning Incorporated, Corning, NY, USA) and grown to confluence while fully submerged in low-calcium ([Ca2+]=0.09 mM) keratinocyte serum-free media (K-SFM) (Life Technologies; Carlsbad, CA). Epithelial differentiation was induced by culturing submerged cell monolayers in high-calcium K-SFM ([Ca2+]=1.8 mM) for 4 days (day 3 to 7). Cells were then exposed for 5 days (day 7 to 12) at ALI by removing cell media from the top chamber, to induce stratification.
Quantitative PCR—RNA was extracted from EPC2-ALI cells by using the Quick-RNA Microprep Kit (Zymo Research Corporation) according to the manufacturer's protocol. Purified RNA (500 ng) was DNase treated and reverse transcribed to cDNA by using Superscript II RNase H Reverse Transcriptase (Thermo Fisher Scientific, Rockford, Ill), according to the manufacturer's instructions. cDNA for ANO1, CAPN14, CCL26, TP63, SFRP1, STAT3 and hypoxanthine phosphoribosyltransferase (HPRT) was quantified by using real-time PCR with the IQ SYBR Green Supermix (Bio-Rad Laboratories, Hercules, Calif) with the CFX96 Touch Real-Time PCR Detection System (Bio-Rad Laboratories). Quantitative PCR (qPCR) analyses were performed by using Bio-Rad CFX Manager Software (version 3.1; Bio-Rad Laboratories), and the results were normalized with HPRT amplified from the same cDNA mix and expressed as fold induction (2^-(ΔΔCT). Primers used for amplification were: […]

STAT3 = target: T1, STAT3 (Homo sapiens, UniProt P40763); test: Western blot of EPC2-ALI for total and phosphorylated STAT3; assay type: cell-based; details: SD-36 10 uM
T1 construct: endogenous in cells; host or cells: hTERT-EPC2 human esophageal epithelial keratinocytes at air-liquid interface (EPC2-ALI)
T1 sequence (P40763 whole entry): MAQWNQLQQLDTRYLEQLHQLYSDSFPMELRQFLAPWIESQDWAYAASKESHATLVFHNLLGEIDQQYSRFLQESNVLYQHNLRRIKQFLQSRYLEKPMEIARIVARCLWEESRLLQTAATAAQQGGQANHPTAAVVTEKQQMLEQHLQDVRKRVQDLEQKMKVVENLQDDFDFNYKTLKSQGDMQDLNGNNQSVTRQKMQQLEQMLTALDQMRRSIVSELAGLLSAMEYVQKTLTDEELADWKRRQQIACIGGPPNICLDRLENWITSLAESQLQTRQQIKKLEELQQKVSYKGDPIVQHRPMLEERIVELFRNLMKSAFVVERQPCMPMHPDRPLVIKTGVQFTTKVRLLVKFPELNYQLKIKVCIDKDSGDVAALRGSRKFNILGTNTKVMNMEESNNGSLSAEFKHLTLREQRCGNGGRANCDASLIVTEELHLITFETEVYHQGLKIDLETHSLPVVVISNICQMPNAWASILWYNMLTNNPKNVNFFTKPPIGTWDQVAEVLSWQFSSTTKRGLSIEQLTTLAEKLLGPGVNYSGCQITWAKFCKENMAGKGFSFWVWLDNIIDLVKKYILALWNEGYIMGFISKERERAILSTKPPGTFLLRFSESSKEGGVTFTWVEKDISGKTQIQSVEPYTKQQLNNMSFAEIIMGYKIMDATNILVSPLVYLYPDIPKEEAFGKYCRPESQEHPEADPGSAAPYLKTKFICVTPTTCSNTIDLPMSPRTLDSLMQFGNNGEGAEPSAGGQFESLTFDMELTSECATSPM
Experimental: as §1
Western blot—EPC2 ALI cells and primary esophageal cells were lysed following stimulation, using a protein extraction reagent (10% Glycerol, 20 mM Tris HCl pH7, 137 mM NaCl, 2 mM EDTA, 1% NP-40 in H2O) with Halt™ protease inhibitor cocktail (Thermo Fisher Scientific Incorporated; Rockford, IL, USA) and PhosSTOP phosphatase inhibitor cocktail tablet (Roche Diagnostics; Mannheim, Germany). […] of protein extract were separated on a 4%-12% Bis-Tris gel and transferred to a nitrocellulose membrane (Life Technologies; Carlsbad, CA). […]

EPC2-ALI cells [2] = test: Quantification of Ki67-positive EPC2-ALI cells; assay type: cell-based, human; details: for Ki67+ EPC2-ALI cells under IL-13-stimulation: compared to IL-13 alone; for Ki67+ EPC2-ALI cells, treatment alone: without IL-13, compared to steady-state (Vehicle)
Experimental: as §1
Quantification of Ki67-positive EPC2-ALI cells—EPC2-ALI cells were cultured in the presence or absence of their respective stimulations for 48 hours. For immunofluorescence (IF) staining, formalin- or paraformaldehyde-fixed, paraffin-embedded transwell sections were sectioned, mounted on slides, and deparaffinized by using standard histologic procedures. Slides were then permeabilized in Tris-EDTA (1 mmol/L, pH 9.0) with 0.1% Tween-20, and antigen exposure was performed at 125° C. for 30 seconds in a decloaking chamber by using a pressure cooker. Slides were then blocked by 10% normal donkey serum for 1 hour, followed by overnight incubation of primary antibodies diluted in 10% normal donkey serum at a final concentration of 1 μg/mL: anti-Ki67 (1:1000; clone: SolA15; Invitrogen), slides were then washed and incubated with secondary antibody at RT for 1 hour. Slides were mounted with 4′-6-diamidino-2-phenylindole dihydrochloride Fluoromount-G (SouthernBiotech, Birmingham, Ala) mounting solution. Fluorescent imaging was performed with the Zeiss Apotome fluorescent microscope (Carl Zeiss Meditec, Dublin, Calif) using Nikon Elements software. Ki67+ cells were quantified as the number of Ki67+-labeled cells per total linear length of filter-attached EPC2-ALI cells using FIJI ImageJ. Three filters per condition from 3 individual experiments were quantitated.

IL4Rα chain = target: T2, IL4Rα chain (Homo sapiens, UniProt P24394); details: adults with active EoE, weekly subcutaneous injections; cited from earlier work
T2 construct: adults with active EoE who received weekly subcutaneous injections of dupilumab; host or cells: human patients (in vivo)

IL-13 = target: T3, IL-13 (Homo sapiens, UniProt P35225); details: cited from earlier work
T3 construct: Treatment of adult EoE patients with RPC4046, a recombinant humanized monoclonal antibody against IL-13 improves histologic and endoscopic outcomes; host or cells: human patients (in vivo)
T3 sequence (P35225 25-146): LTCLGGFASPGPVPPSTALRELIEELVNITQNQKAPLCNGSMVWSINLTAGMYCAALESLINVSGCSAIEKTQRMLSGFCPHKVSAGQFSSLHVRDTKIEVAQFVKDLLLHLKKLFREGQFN

Molecule: NC(=O)CC[C@H](NC(=O)[C@@H]1CC[C@@H]2CCN(C(=O)CCCCCC#Cc3cccc4c3CN(C3CCC(=O)NC3=O)C4=O)C[C@H](NC(=O)c3cc4cc(C(F)(F)P(=O)(O)O)ccc4[nH]3)C(=O)N21)C(=O)NC(c1ccccc1)c1ccccc1 (stereo partly drawn) [SD-36]
- IL-13-induced mRNA expression of ANO1 (EPC2-ALI cells [1]): abolished
- IL-13-induced mRNA expression of TP63 (EPC2-ALI cells [1]): abolished
- IL-13 induction of canonical EoE inflammatory genes (CCL26, SLC9A3, CAPN14) mRNA (EPC2-ALI cells [1]): not significantly inhibited
- IL-13 induced phosphorylation of STAT3 Y705 and Y727 residues (STAT3; IL-13 100 ng/mL): total loss
- degradation of STAT3 (total STAT3 protein) (STAT3; at steady state and following IL-13-stimulation (100 ng/mL)): led to degradation of STAT3
- IL-13-induced increase in EPC2-ALI Ki-67+ cells (EPC2-ALI cells [2]; SD-36 10 uM, IL-13 100 ng/mL, 48 hours): attenuated

Molecule: O=S(=O)(NC1CCNCC1)c1cc(S(=O)(=O)c2ccccc2)ccc1C(F)(F)F [SFRP1inh]
- Ki67+ EPC2-ALI cells under IL-13-stimulation (EPC2-ALI cells [2]): increase
- Ki67+ EPC2-ALI cells, treatment alone (EPC2-ALI cells [2]): increase

Molecule: dupilumab: fully human IgG4 monoclonal antibody that binds the IL4Rα chain and blocks both IL-4 and IL-13 signaling
- esophageal distensibility (IL4Rα chain): increased
- histologic and endoscopic severity scores (IL4Rα chain): decreased
- peak esophageal eosinophil count (IL4Rα chain): reduced

B1: RPC4046: recombinant humanized monoclonal antibody against IL-13 (antibody, chains of the INN, looked up, V domains shown)
VH: EVTLRESGPGLVKPTQTLTLTCTLYGFSLSTSDMGVDWIRQPPGKGLEWLAHIWWDDVKRYNPALKSRLTISKDTSKNQVVLKLTSVDPVDTATYYCARTVSSGYIYYAMDYWGQGTLVTVSS
VL: DIQMTQSPSSLSASVGDRVTISCRASQDIRNYLNWYQQKPGKAPKLLIFYTSKLHSGVPSRFSGSGSGTDYTLTISSLQPEDIATYYCQQGNTLPLTFGGGTKVEIK
- endoscopic, histologic and clinical improvement in long-term extension (IL-13; 52-week open-label LTE study, 360 mg/week): sustained endoscopic, histologic and clinical improvement
- histologic and endoscopic outcomes (IL-13; adult EoE patients): improves

B2: rSFRP1: recombinant secreted frizzled-related protein 1, used as pharmacologic agonist (protein, UniProt Q8N474 32-314, looked up)
Secreted frizzled-related …: SEYDYVSFQSDIGPYQSGRFYTKPPQCVDIPADLRLCHNVGYKKMVLPNLLEHETMAEVKQQASSWVPLLNKNCHAGTQVFLCSLFAPVCLDRPIYPCRWLCEAVRDSCEPVMQFFGFYWPEMLKCDKFPEGDVCIAMTPPNATEASKPQGTTVCPPCDNELKSEAIIEHLCASEFALRMKIKEVKKENGDKKIVPKKKKPLKLGPIKKKDLKKLVLYLKNGADCPCHQLDNLSHHFLIMGRKVKSQYLLTAIHKWDKKNKEFKNFMKKMKNHECPTFQSVFK
- Ki67+ EPC2-ALI cells under IL-13-stimulation (EPC2-ALI cells [2]): decrease
- Ki67+ EPC2-ALI cells, treatment alone (EPC2-ALI cells [2]): sufficient to inhibit esophageal epithelial proliferation
